Laboratory results taken from patent US6323187A, “Therapeutic dinucleotide and derivatives” (priority 1999, dated 2001).

What was measured:
[1] = system: human airway epithelial cells; settings: human airway epithelial cells in vitro; D. Drutz, et al. (1996); cited from earlier work
Type II alveolar cells = settings: Gobran (1994); cited from earlier work
cough clearance = settings: patients with PCD; P. Noone, et al. (1996); cited from earlier work
P2Y2 receptor = settings: H. Brown, et al. (1991); cited from earlier work
in vitro = settings: human, bronchial epithelial cells, pH 7.2
Protocol: Epithelial cells were grown as monolayers on an airliquid interface in ALI medium. Assays were conducted on fully differentiated cells in KRB-Ringer solution (pH 7.2) at 37° C. with 0.1 mM nucleotide substrate. Aliquots of airway surface liquid were removed at 5, 10, 15, 20, 40 and 60 minutes. The metabolism was stopped by boiling and filtering the aliquots, and the samples were analyzed by high performance liquid chromatography using the following conditions: C- 18 column with a 55 min gradient of 10-100 mM KH2 PO4 and constant 8 mM tetrabutyl ammonium hydrogen sulfate and 10% methanol).

goblet cells = settings: in vitro; M. Lethem, et al. (1993); cited from earlier work
airway epithelial cells = airway epithelial cells in vitro; S. Mason, et al. (1991); cited from earlier work
[2] = system: lung mucociliary clearance; settings: normal volunteers; K. Olivier, et al. (1996); cited from earlier work
sputum production = settings: normal healthy volunteers; background section; cited from earlier work
P2Y4 = P2Y4 (Homo sapiens, UniProt P51582); test: Inositol phosphate assay, P2Y4 receptor; assay type: cell-based; settings: IA = no agonist activity at 30 μM
Sequence of P2Y4 (P51582 whole entry, species assumed): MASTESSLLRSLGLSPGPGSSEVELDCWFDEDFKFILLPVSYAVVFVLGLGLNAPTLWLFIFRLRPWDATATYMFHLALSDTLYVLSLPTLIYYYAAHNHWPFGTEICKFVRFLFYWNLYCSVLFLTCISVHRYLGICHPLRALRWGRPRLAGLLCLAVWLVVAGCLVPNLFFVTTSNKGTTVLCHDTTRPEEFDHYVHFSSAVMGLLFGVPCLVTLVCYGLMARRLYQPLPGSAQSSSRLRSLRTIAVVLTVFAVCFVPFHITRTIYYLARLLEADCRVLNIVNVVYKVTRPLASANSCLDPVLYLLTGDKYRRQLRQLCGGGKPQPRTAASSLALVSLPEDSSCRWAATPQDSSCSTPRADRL
Protocol: (§1) The pharmaceutical utility of the compounds of this invention is indicated by the inositol phosphate assay for P2Y2 and other P2Y receptor activity. This widely used assay, as described in E. Lazarowski, et al., Brit. J. Pharm. 116, 1619-27 (1995), relies on the measurement of inositol phosphate formation as a measurement of activity of compounds activating receptors linked via G-proteins to phospholipase C.
(§2) The compounds of Formula I was tested for its ability to elicit P2Y1, P2Y2, P2Y4 and P2Y6 receptor activity using the inositol phosphate assay as described by E. Lazarowski, et al., Brit. J. Pharm. 116, 1619-27 (1995).

[3] = system: human nasal epithelial cells; test: Chloride secretion in human nasal airway cells (change in ISC); assay type: cell-based; settings: more potent than U2 P4; amiloride 100 μM present; apical addition
Protocol: Airway epithelial cells were desegregated and isolated from freshly excised human nasal surgical specimens (Yankaskas, et al., Am. Rev. Respir. Dis. 132, 1281-1287 (1985)). Confluent monolayers were cultured on permeable collagen matrix supports in F-12 hormone-supplemented medium (Wu, et. al., Am. Rev. Respir. Dis. 132, 311-320 (1985)). Cells were incubated at 37° C. and grown to confluence. Development of transepithelial resistance was monitored to determine the formation of tight junctions between the cells. After formation of tight junctions, was confirmed, the matrix supports containing the cultures were mounted in modified Using chambers. […]
Polycarbonate Using chambers were milled to fit the plastic cups that supported the permeable collagen matrix on which the cells were grown. Bioelectric properties including ISC, transepithelial potential difference and resistance were monitored. Short-circuit current (ISC) was measured with a digital voltmeter (UNC Electronics, Chapel Hill, N.C.) and plotted on a strip-chart recorder. The open circuit potential was recorded periodically, and conductance was monitored in the voltage clamp mode by the current deflection in response to a 10-mV voltage pulse.
A stable baseline of ISC was recorded and amiloride (100 μM) was added to the solution bathing the apical surface to block sodium absorption. […] The change in ISC was recorded. […]

P2Y6 = test: Inositol phosphate assay, P2Y6 receptor; assay type: cell-based; settings: IA = no agonist activity at 30 μM
Protocol: as §1, §2

P2Y1 = test: Inositol phosphate assay, P2Y1 receptor; assay type: cell-based; settings: IA = no agonist activity at 30 μM
Protocol: as §1, §2

P2Y2 = molecular target: T1, P2Y2 (Homo sapiens, UniProt P41231); test: Inositol phosphate assay, P2Y2 receptor; assay type: cell-based; settings: IA = no agonist activity at 30 μM
T1 construct: expressed in transfected cells
T1 sequence (P41231 whole entry): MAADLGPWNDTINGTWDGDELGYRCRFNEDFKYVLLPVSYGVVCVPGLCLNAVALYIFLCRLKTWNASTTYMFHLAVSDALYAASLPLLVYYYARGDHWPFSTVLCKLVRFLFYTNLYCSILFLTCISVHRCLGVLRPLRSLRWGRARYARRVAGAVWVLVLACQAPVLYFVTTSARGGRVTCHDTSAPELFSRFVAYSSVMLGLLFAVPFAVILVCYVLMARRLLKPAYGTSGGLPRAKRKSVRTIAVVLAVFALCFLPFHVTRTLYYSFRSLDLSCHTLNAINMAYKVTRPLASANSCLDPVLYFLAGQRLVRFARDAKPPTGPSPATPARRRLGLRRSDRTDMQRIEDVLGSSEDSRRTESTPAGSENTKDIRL
Protocol: as §1, §2

| SMILES | metabolised at 1 h, 100 µM (in vitro) [%] | EC50 (P2Y4) [µM] | EC50 (P2Y6) [µM] | EC50 (P2Y1) [µM] | EC50 (P2Y2) [µM] | other results |
| --- | --- | --- | --- | --- | --- | --- |
| O=c1ccn([C@@H]2O[C@H](COP(=O)(O)OP(=O)(O)OP(=O)(O)O)[C@@H](O)[C@H]2O)c(=O)[nH]1 [UTP, uridine 5'-triphosphate] | 100 | – | – | – | – | cilia beat frequency [1]: increase cilia beat frequency; release of surfactant from Type II alveolar cells (Type II alveolar cells): release of surfactant; cough clearance (cough clearance): significantly enhances cough clearance; intracellular Ca^++ (P2Y2 receptor): increase intracellular Ca^++; mucin secretion by goblet cells (goblet cells): increase both the rate and total amount of mucin secretion; Cl^- secretion (airway epithelial cells): increase Cl^- secretion; lung mucociliary clearance [2]: improvement in lung mucociliary clearance; side-effects [2]: without any significant side-effects |
| O=c1ccn([C@@H]2O[C@H](COP(=O)(O)OP(=O)(O)OP(=O)(O)OP(=O)(O)OC[C@H]3O[C@@H](n4ccc(=O)[nH]c4=O)[C@H](O)[C@@H]3O)[C@@H](O)[C@H]2O)c(=O)[nH]1 [U2 P4, P^1,P^4 -Di(uridine 5'-)tetraphosphate] | 40 | – | – | – | – | sputum production (sputum production): increase sputum production |
| Nc1ccn([C@@H]2O[C@H](COP(=O)(O)OP(=O)(O)OP(=O)(O)OP(=O)(O)OC[C@H]3O[C@@H](n4ccc(=O)[nH]c4=O)[C@H](O)[C@@H]3O)[C@@H](O)[C@H]2O)c(=O)n1 [CP4 U, P^1-(cytidine 5'-)-P^4-(uridine 5'-)-tetraphosphate] | – | 0.65 | 3.5 | > 30 | 0.45 | potency relative to U2 P4 in the chloride secretion assay [3]: approximately ten-fold |
| Nc1ccn([C@@H]2O[C@H](COP(=O)(O)OP(=O)(O)OP(=O)(O)OP(=O)(O)OC[C@H]3O[C@@H](n4ccc(N)nc4=O)[C@H](O)[C@@H]3O)[C@@H](O)[C@H]2O)c(=O)n1 [C2 P4] | – | > 30 | > 30 | > 30 | > 30 | – |
